According to ChEMBL document CHEMBL1123341, “Thromboxane A2 synthase inhibitors. 5-(3-Pyridylmethyl)benzofuran-2-carboxylic acids” (J Med Chem, 1986):
≈ marks a conversion by molar mass, not a printed value.

What was measured:
[1] = biological target: T1, Thromboxane-A synthase (Homo sapiens) (UniProt P24557); experiment: In vitro inhibition of TXA2 biosynthesis in human microsomal platelets; type: functional, microsomes; conditions: Microsome
T1 sequence (whole entry): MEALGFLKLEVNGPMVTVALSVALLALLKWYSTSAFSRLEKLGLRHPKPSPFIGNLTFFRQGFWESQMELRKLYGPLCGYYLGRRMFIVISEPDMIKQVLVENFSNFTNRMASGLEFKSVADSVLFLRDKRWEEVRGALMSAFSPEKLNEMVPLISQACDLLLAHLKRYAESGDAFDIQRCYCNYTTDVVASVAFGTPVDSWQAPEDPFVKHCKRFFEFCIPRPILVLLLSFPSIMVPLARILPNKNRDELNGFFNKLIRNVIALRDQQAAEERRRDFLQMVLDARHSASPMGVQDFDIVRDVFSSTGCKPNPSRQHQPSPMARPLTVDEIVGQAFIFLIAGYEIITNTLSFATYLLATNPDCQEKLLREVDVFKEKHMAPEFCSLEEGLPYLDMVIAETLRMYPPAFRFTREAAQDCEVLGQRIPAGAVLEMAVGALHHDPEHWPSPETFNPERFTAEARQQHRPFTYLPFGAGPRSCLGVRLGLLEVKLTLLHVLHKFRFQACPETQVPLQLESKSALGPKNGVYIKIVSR

[2] = biological target: T1, Thromboxane-A synthase (Homo sapiens); experiment: In vitro inhibition of TXA2 biosynthesis in human microsomal platelets relative to Sodium Furegrelate; type: functional, microsomes; conditions: Microsome
[3] = biological target: T1, Thromboxane-A synthase (Homo sapiens); experiment: Compound was tested for thromboxane synthase activity in microsomal preparations from human platelets(HPM); type: functional
[4] = tested on: Thromboxane-A synthase (Canis lupus familiaris); experiment: Compound was tested for thromboxane synthase activity in microsomal preparations from dog lung(DLM)
[5] = tested on: Thromboxane-A synthase (Cavia porcellus); experiment: Compound was tested for thromboxane synthase activity in microsomal preparations from guinea pig lung(GPLM)
[6] = biological target: T1, Thromboxane-A synthase (Homo sapiens); experiment: Compound was tested in vitro for its ability to inhibit TXA2 biosynthesis in human microsomal platelets; type: functional, microsomes; conditions: Microsome

Row | SMILES | ED50 [1] | Relative potency [2] | further results
1 | O=C(O)c1cc2cc(Cc3cnccc3Cl)ccc2o1 | > 10 µg/mL | < 0.0001 | 
2 | C/C(=C\c1ccc(Cc2cccnc2)cc1)C(=O)O | 0.03 µg/mL (≈ 0.118 µM) | 0.3 | ED50 [3]: 0.03 µg/mL (≈ 0.118 µM); ED50 [4]: 0.003 µg/mL (≈ 0.0118 µM); ED50 [5]: 0.2 µg/mL (≈ 0.79 µM)
3 | CCCCC[C@H](O)/C=C/[C@H]1C2CC(N=N2)[C@@H]1C/C=C\CCCC(=O)O (some centres not stated) |  |  | ED50 [6]: 0.03 µg/mL (≈ 0.0861 µM); Relative potency [6]: 0.3
4 | O=C(O)c1cc2cc(Cc3cccnc3)cc(Br)c2o1 | 0.03 µg/mL (≈ 0.0903 µM) | 0.3 | 
5 | O=C(O)c1cc2cc(Cc3ccc(Cl)nc3)ccc2o1 |  |  | ED50 [6]: > 10 µg/mL; Relative potency [6]: < 0.001
6 | Cc1c(C(=O)O)oc2ccc(Cc3cccnc3)cc12 | 0.03 µg/mL (≈ 0.112 µM) | 0.3 | 
7 | O=C(O)c1cc2ccc(Cc3cccnc3)cc2o1 | 0.03 µg/mL (≈ 0.118 µM) | 0.3 | 
8 | O=C(O)c1cc2cc(Cc3ccc[n+]([O-])c3)ccc2o1 |  |  | ED50 [6]: > 10 µg/mL; Relative potency [6]: < 0.001
9 | O=C(O)c1cc2cc(Cc3cccnc3)ccc2o1 | 0.01 µg/mL (≈ 0.0395 µM) |  | ED50 [3]: 0.01 µg/mL (≈ 0.0395 µM)
10 | O=C(O)c1cc2cc(-c3cccnc3)ccc2o1 | 0.03 µg/mL (≈ 0.125 µM) | 0.3 | 
11 | O=C(O)c1cc2cc(CCc3cccnc3)ccc2o1 | 3 µg/mL (≈ 11.2 µM) | 0.003 | 
12 | O=C(O)c1cc2cc(Cc3cccnc3Cl)ccc2o1 |  |  | ED50 [6]: 0.1 µg/mL (≈ 0.348 µM); Relative potency [6]: 0.1
13 | Cc1cc(Cc2cccnc2)cc2cc(C(=O)O)oc12 | 0.03 µg/mL (≈ 0.112 µM) | 0.3 | 
14 | NC(=O)c1cc2cc(Cc3cccnc3)ccc2o1 | 0.3 µg/mL (≈ 1.19 µM) | 0.003 | 
15 | O=C(O)c1cc2ccc(CCc3cccnc3)cc2o1 | 3 µg/mL (≈ 11.2 µM) | 0.003 | 
16 | O=C(c1cccnc1)c1ccc2oc(C(=O)O)cc2c1 | 3 µg/mL (≈ 11.2 µM) | 0.003 | 
17 | COc1cc(Cc2cccnc2)cc2cc(C(=O)O)oc12 | 0.03 µg/mL (≈ 0.106 µM) | 0.3 | 
